# Reference: patent publication EP0609289B1, “IMIDAZOLE DERIVATIVES AND PHARMACEUTICAL COMPOSITIONS CONTAINING THE SAME” (THE UPJOHN COMPANY, priority 1991, dated 1993)
# Key:
# Angiotensin II receptor = assay: In vitro angiotensin II mesenteric artery receptor binding assay (test 1); conditions: rat mesenteric artery membrane fraction, 0.2 nM 125I-Ang II, 22°C, 90 minutes
# Experimental: I) In vitro angiotensin II mesenteric artery receptor binding assay
# According to the method (1) by Gunther et al., a membrane fraction was prepared from mesenteric artery of male rat, […] protein equivalent of it and 0.2 nM ^125I-Ang II as well as various concentrations of test compounds were incubated at 22°C for 90 minutes in an incubation buffer (50 mM Tris-HCl, 120 mM NaCl, 5 mM MgCl2. 0.25% bovine serum albumin, pH 7.2) (reaction volume; 200 µl). The incubated was cooled, and the reaction was stopped by addition of ice-cooled phosphate buffer (10 mM phosphate, 140 mM NaCI, pH 7.4, hereinafter referred to as PBS), and then the reaction solution was filtered through a glass fiber filter (Whatman CF/B), the filter was washed, dried, and then the radioactivity of captured ^125I-angiotensin II which bound to the receptor was measured by a γ-counter. Non-specific bound amount was obtained from the reaction in the presence of 1 µM of unlabeled angiotensin II. […] Res., 17:278-286, 1980].
# [1] = tested on: blood pressure increase by angiotensin II; assay: Antagonism to blood pressure increase by angiotensin II in a spine destroyed (pithed) rat (test 4); assay type: in vivo, Wistar rat; conditions: intravenous administration, 3µg/kg angiotensin II, read-out: Inhibition of blood pressure increase by angiotensin II in pithed rat ED50(mg/kg) (test 4)
# Source text: 4) Antagonism to blood pressure increasing by angiotensin II in a spine destroyed rat
# Wistar rat anaesthetized with pentobarbital was fixed at dorsal position, and a cannula for measuring blood pressure was inserted into sinister arteria carotis communis, and a cannula for administration of the test compound into dexter external jugular vein and a cannula for administration of angiotensin II into sinister external jugular vein, ambilateral nervus vagus was cut, and artificial respiration was carried out. A thin bar made of metal was stabbed into spinal column through sinister orbita to destroy spine. Blood pressure was recorded on polygraph via pressure transducer from an arterial cannula. After blood pressure was stable for more than 30 min., 3µg/kg of angiotensin II was administered intravenously four times every 15 min, and every 5 min. before the administration of angiotensin II from the second administration onward, a solvent, a lower dose of the test compound, and a higher dose of the test compound were administered intravenously in this order to observe the blood pressure increasing response by angiotensin II. ED50 values were calculated from the inhibiting rate when the first blood pressure increase by angiotensin II was regarded as 100 %.
IC50 (Angiotensin II receptor) [nM],SMILES,ED50 [1] [mg/kg]
5.3,"CCCc1nc2c(=O)n3n(c(=O)c2n1Cc1ccc(-c2ccccc2-c2nn[nH]n2)cc1)CC(C)C(C)C3 (stereo not shown) [Compound No. 50, 6,7-dimethyl-2-n-propyl-5,6,7,8-tetrahydro-1-[(2'-(1H-tetrazol-5-yl)biphenyl-4-yl)methyl]-1H-1,3,4a,8a-tetraza-cyclopentanaphthalene-4,9-dione]",0.2
4,"CCCc1nc2c(=O)n3n(c(=O)c2n1Cc1ccc(-c2ccccc2-c2nn[nH]n2)cc1)C(C(=O)OCC)CCC3C (stereo not shown) [Compound No. 138, ethyl 4,9-dioxo-5-methyl-2-n-propyl-5,6,7,8-tetrahydro-1-[(2'-(1H-tetrazol-5-yl)biphenyl-4-yl)methyl]-1H-1,3,4a,8a-tetraza-cyclopentanaphthalene-8-carboxylate]",0.096
4.6,"CCCCc1nc2c(=O)n3n(c(=O)c2n1Cc1ccc(-c2ccccc2-c2nn[nH]n2)cc1)C1CCC3(C(=O)OCC)CC1 [Compound No. 196, ethyl 2-n-butyl-4,9-dioxo-5,8-ethano-5,6,7,8-tetrahydro-1-[{2'-(1H-tetrazol-5-yl)biphenyl-4-yl}methyl]-1H-1,3,4a,8a-tetraza-cyclopentanaphthalene-5-carboxylate]",0.23
8.2,"CCCCc1nc2c(=O)n3n(c(=O)c2n1Cc1ccc(-c2ccccc2-c2nnn[nH]2)cc1)C(C)CCC3C(=O)NC(C)(C)C (stereo not shown) [Compound No. 208, 2-n-butyl-4,9-dioxo-8-methyl-5,6,7,8-tetrahydro-1-[{2'-(1H-tetrazol-5-yl)biphenyl-4-yl}methyl]-1H-1,3,4a,8a-tetraza-cyclopentanaphthalene-5-carboxy-N-t-butylamide]",0.12
3,"CCCCc1nc2c(=O)n3n(c(=O)c2n1Cc1ccc(-c2ccccc2-c2nnn[nH]2)cc1)C1(CO)CCC3CC1 [Compound No. 222, 2-n-butyl-5,8-ethano-8-hydroxymethyl-5,6,7,8-tetrahydro-1-[{2'-(1H-tetrazol-5-yl)biphenyl-4-yl}methyl]-1H-1,3,4a,8a-tetraza-cyclopentanaphthalene-4,9-dione]",0.56
9.8,"CCCc1nc2c(=O)n3n(c(=O)c2n1Cc1ccc(-c2ccccc2-c2nnn[nH]2)cc1)C1CCC3(C(=O)N(CC)CC)CC1 [Compound No. 231, 4,9-dioxo-5,8-ethano-2-n-propyl-5,6,7,8-tetrahydro-1-[{2'-(1H-tetrazol-5-yl)biphenyl-4-yl}methyl]-1H-1,3,4a,8a-tetraza-cyclopentanaphthalene-5-carboxy-N,N-diethylamide]",0.074
32,"CCCCc1nc2c(=O)n3n(c(=O)c2n1Cc1ccc(-c2ccccc2-c2nn[nH]n2)cc1)C1CCC3(C(=O)NC(C)(C)C)CC1 [Compound No. 236, 2-n-butyl-4,9-dioxo-5,8-ethano-5,6,7,8-tetrahydro-1-[{2'-(1H-tetrazol-5-yl)biphenyl-4-yl}methyl]-1H-1,3,4a,8a-tetraza-cyclopentanaphthalene-5-carboxy-N-t-butylamide]",0.11
> 100,"CCCCc1nc2c(n1Cc1ccc(-c3ccccc3-c3nnn[nH]3)cc1)CN1C(C)CCC(CO)N1C2=O (stereo not shown) [Compound No. 538, 2-n-butyl-5-hydroxymethyl-8-methyl-5,6,7,8-tetrahydro-1-[{2'-(1H-tetrazol-5-yl)biphenyl-4-yl}methyl]-1H-9H-1,3,4a,8a-tetraza-cyclopentanaphthalene-4-one]",
34,"CCCCc1nc2c(n1Cc1ccc(-c3ccccc3-c3nnn[nH]3)cc1)CN1C(CO)CCC(C)N1C2=O (stereo not shown) [Compound No. 540, 2-n-butyl-8-hydroxymethyl-5-methyl-5,6,7,8-tetrahydro-1-[{2'-(1H-tetrazol-5-yl)biphenyl-4-yl}methyl]-1H,9H-1,3,4a,8a-tetraza-cyclopentanaphthalene-4-one]",
> 30,"CCCc1nc2c(=O)n3n(c(=O)c2n1Cc1ccc(-c2ccccc2-c2nn[nH]n2)cc1)C(C(=O)O)CCC3C (stereo not shown) [compound 56, 4,9-dioxo-5-methyl-2-n-propyl-5,6,7,8-tetrahydro-1-[(2'-(1H-tetrazol-5-yl)biphenyl-4-yl)methyl]-1H-1,3,4a,8a-tetraza-cyclopentanaphthalene-8-carboxylic acid]",
8.1,"CCCCc1nc2c(=O)n3n(c(=O)c2n1Cc1ccc(-c2ccccc2-c2nn[nH]n2)cc1)CC(C)=C(C)C3 [compound 68, 2-n-butyl-5,8-dihydro-6,7-dimethyl-1-[(2'-(1H-tetrazol-5-yl)biphenyl-4-yl)methyl]-1H-1,3,4a,8a-tetraza-cyclopentanaphthalene-4,9-dione]",0.56
> 100,"CCCCc1nc2c(=O)n3n(c(=O)c2n1Cc1ccc(C(=O)O)cc1)C(C(=O)O)CCC3C (stereo not shown) [compound 121, 2-n-butyl-1-[(4-carboxyphenyl)methyl]-4,9-dioxo-5-methyl-5,6,7,8-tetrahydro-1H-1,3,4a,8a-tetraza-cyclopentanaphthalene-8-carboxylic acid]",
> 100,"CCCCc1nc2c(=O)n3n(c(=O)c2n1Cc1ccc(C(=O)O)cc1)C(C)CCC3C(=O)O (stereo not shown) [compound 124, 2-n-butyl-1[(4-carboxyphenyl)methyl]-4,9-dioxo-8-methyl-5,6,7,8-tetrahydro-1H-1,3,4a,8a-tetraza-cyclopentanaphthalene-5-carboxylic acid]",
3.2,"CCCCc1nc2c(=O)n3n(c(=O)c2n1Cc1ccc(-c2ccccc2-c2nn[nH]n2)cc1)C(C(=O)OCC)CCC3C (stereo not shown) [compound 167, ethyl 2-n-butyl-4,9-dioxo-5-methyl-5,6,7,8-tetrahydro-1-[{2'-(1H-tetrazol-5-yl)biphenyl-4-yl}methyl]-1H-1,3,4a,8a-tetraza-cyclopentanaphthalene-8-carboxylate]",
4.6,"CCCc1nc2c(=O)n3n(c(=O)c2n1Cc1ccc(-c2ccccc2-c2nn[nH]n2)cc1)C(C)CCC3C (stereo not shown) [compound 337, 5,8-dimethyl-2-n-propyl-5,6,7,8-tetrahydro-1-[{2'-(1H-tetrazol-5-yl)biphenyl-4-yl}methyl]-1H-1,3,4a,8a-tetraza-cyclopentanaphthalene-4,9-dione]",
> 100,"CCc1nc2c(=O)n3n(c(=O)c2n1Cc1ccc(-c2ccccc2-c2nn[nH]n2)cc1)C1(CC)CCC3(CC)CC1 [compound 355, 5,8-diethyl-5,8-ethano-2-ethyl-5,6,7,8-tetrahydro-1-[{2'-(1H-tetrazol-5-yl)biphenyl-4-yl}methyl]-1H-1,3,4a,8a-tetraza-cyclopentanaphthalene-4,9-dione]",
55,"CCc1nc2c(=O)n3n(c(=O)c2n1Cc1ccc(-c2ccccc2-c2nn[nH]n2)cc1)C1(C)CCC3(C)CC1 [compound 361, 5,8-dimethyl-5,8-ethano-2-ethyl-5,6,7,8-tetrahydro-1-[{2'-(1H-tetrazol-5-yl)biphenyl-4-yl}methyl]-1H-1,3,4a,8a-tetraza-cyclopentanaphthalene-4,9-dione]",
9.1,"C/C=C/c1nc2c(n1Cc1ccc(-c3ccccc3-c3nnn[nH]3)cc1)C(=O)N1N(C2)C2(CC)CCC1(CC)CC2 [compound 521, 5,8-diethyl-5,8-ethano-2-(1-E-propenyl)-5,6,7,8-tetrahydro-1-[{2'-(1H-tetrazol-5-yl)biphenyl-4-yl}methyl]-1H,4H-1,3,4a,8a-tetraza-cyclopentanaphthalene-9-one]",
26,"CCc1nc2c(=O)n3n(c(=O)c2n1Cc1ccc(-c2ccccc2-c2nnn[nH]2)cc1)C1CCC3CC1 [compound 543, 5,8-ethano-2-ethyl-5,6,7,8-tetrahydro-1-[{2'-(1H-tetrazol-5-yl)biphenyl-4-yl}methyl)-1H-1,3,4a,8a-tetraza-cyclopentanaphthalene-4,9-dione]",
> 100,"CCCCc1nc2c(=O)n3n(c(=O)c2n1Cc1ccc(C(=O)O)cc1)C1CCC3CC1 [compound 544, 2-n-butyl-1-[(4-carboxyphenyl)methyl]-5,8-ethano-5,6,7,8-tetrahydro-1H-1,3,4a,8a-tetraza-cyclopentanaphthalene-4,9-dione]",
